Here are results for 2 compounds from publication PMC6072516, “Rational design and synthesis of novel phenylsulfonyl-benzamides as anti-prostate cancer agents” (MedChemComm, 2017).

The subject of data set [1] is HEK293 human embryonic kidney cells. Put plainly: Cell Titer Blue viability (cytotoxicity) assay. The format is cell-based. On the procedure: (§1) A Cell Titer Blue viability assay was performed in the human embryonic kidney cell line HEK293, in order to evaluate the cytotoxicity profile of the newly prepared compounds. […] .
(§2) Fig. 5 HEK293 human embryonic kidney cells were treated at 70% confluence with negative controls (0.1% DMSO, BICAL at 10 μM), positive control (10% DMSO) and compounds at 10 μM concentration for 24 hours. […] Fluorescence was measured at 560/590 nm using a CLARIOstar luminescence plate reader (BMG Labtech). N = 4, n = 6 for controls, n = 3 for drugs. […]
(§3) for calculation of the geometric mean value. […]
(§4) of 0.05% Trypsin/EDTA. […] When all cells […]
(§5) chamber counting grid (Immune Systems). […]
(§6) confluence for assay the next day. […]
(§7) drugs at 10 µM concentration.
(§8) 100 µl media. […] Fluorescence was measured
(§9) USA). […] The Dunnett’s multiple […]
(§10) comparison test was used to compare each drug and the positive control to the negative control […]
(§11) Compound R1 X R2 Cell Viability Antiproliferative
(§12) Mean (%)* SEM** Abs. IC50
(§13) Table S2. Cell Viability assay at 10 µM. * Mean % of cell viability relative to control; ** Errors are calculated as standard error of the mean; ***Geometric mean.
(In general: The colour change of resazurin is a common sign of viable cells or microbes.)

In data set [2] the test system is four human prostate cancer cell lines: LNCaP, 22Rv1, VCaP, DU145. Put plainly: Antiproliferative assay, overall effect in the four cell lines (geometric mean). It is filed as cell-based. The conditions noted are these: Homo sapiens, geometric mean of the four cell lines; read-out: Absolute IC50 Geo. mean. On the procedure: PCR based DNA-fingerprinting methodology.
density of 4.000 – 30.000 cells/well.
test compound were added.
concentrations in triplicate.
After an incubation period of
control/background ratio >3.0
The absolute IC50 value reflects the
The calculation was done by a 4
for calculation of the geometric mean value.
of 0.05% Trypsin/EDTA. […] When all cells

Data set [3] can be described thus: Cell Titer Blue viability (cytotoxicity) assay. It is filed as cell-based, human. The conditions noted are these: human. On the procedure:
as §1, §2, §3, §4, §5, §6, §7, §8, §9, §10, §11, §12, §13

Another data set deals with VCaP. The data set is described as follows: 2D monolayer antiproliferative assay (propidium iodide), VCaP. The conditions noted are these: Homo sapiens, 96 h, read-out: Absolute IC50 VCaP.
For a further data set, the system named is 22Rv1. Put plainly: 2D monolayer antiproliferative assay (propidium iodide), 22Rv1. The conditions noted are these: Homo sapiens, 22Rv1, 96 h, read-out: Absolute IC50 22Rv1.
A further data set has as its system LNCaP. The data set is described as follows: 2D monolayer antiproliferative assay (propidium iodide), LNCaP. The conditions noted are these: Homo sapiens, LNCaP, 96 h, read-out: Absolute IC50 LNCaP.
A further data set deals with DU-145. Put plainly: 2D monolayer antiproliferative assay (propidium iodide), DU-145. The conditions noted are these: Homo sapiens, DU-145, 96 h, read-out: Absolute IC50 DU-145.

The structures appear in SMILES notation.

Description for DU-145: All new compounds along with the two standards were tested for their ability to inhibit survival and/or cell proliferation in four human prostate cancer cell lines: LNCaP, 22Rv1, VCaP, androgen-sensitive cell lines, and DU145, a non hormone-sensitive cell line.
Compound Handling: Stock solutions for all inhibitors were prepared in DMSO at a
were well soluble at this concentration in DMSO and precipitation was not observed for any
compound dissolved in 100% DMSO. Aliquots of the stock solution were thawed on the day
of use and stored at room temperature prior to and during treatment. The subsequent dilutions
were done with complete RPMI1640 cell culture medium. The DMSO stock solution was first
Starting with this solution, serial dilutions in
half-log steps with cell culture medium were done using an intermediate dilution plate. Finally,
10 µl taken from the intermediate dilution plate were transferred to 140 µl / well of the cell
culture plate. Thus, at the highest test concentration the DMSO stock was diluted 1:330,
corresponding to a maximum DMSO concentration of 0.3 % v/v in the assay. Solubility of the
diluted compounds in the assay was monitored under the microscope by visual inspection of
the treated cell lines after the 4 days incubation. Precipitation as observed by crystalline
Tumor Cell lines: The cell line panel used for assessing the novel inhibitors comprised four
cell lines derived from human prostate cancers.
6-7 Cell lines were routinely passaged once or twice weekly and maintained in culture for up to 20 passages. All cells were grown at 37°C in
glutamine, #FG1385, Biochrom, Berlin, Germany) supplemented with 10% (v/v) fetal calf serum (Sigma, Taufkirchen, Germany) and 0.1 mg/mL gentamicin (Life Technologies,
Cell Proliferation Assay: A modified propidium iodide (PI) based monolayer assay was used
exponential phase cultures, counted and plated in 96-well flat-bottom micro titer plates at a cell density of 4.000 – 30.000 cells/well. After a 24 h recovery period to allow the cells to resume exponential growth, 10 µl of culture medium (six control wells/plate) or culture medium with test compound were added. The compounds were applied in half-log increments at 10 concentrations in triplicate. After a total treatment period of 96 h, cells were washed with 200 µl PBS to remove dead cells and debris. Then, 200 µl of a solution containing 7 µg/ml propidium iodide (PI) and 0.1% (v/v) Triton X-100 was added. After an incubation period of 1-2 hours at room temperature, fluorescence (FU) was measured using the EnSpire Multimode Plate Reader (excitation λ= 530 nm, emission λ= 620 nm) to quantify the amount of attached
For calculation of mean IC50 values the geometric mean was used.
Data Evaluation: An assay was considered fully evaluable if the following quality control
- Z’-factor calculated within the assay plate ≥0.59
- fluorescence intensity of >500 U from the untreated control wells, equivalent to a
- coefficient of variation in the growth control wells ≤30
Compound effects were expressed in terms of the percentage of the fluorescence signal, obtained by comparison of the mean signal in the treated wells with the mean signal of the untreated controls (expressed by the test-versus-control value, T/C-value [%]):

In the case of `C[S+](C)[O-]` [10% DMSO], the “Cell Viability Mean (%)” value in data set [1] (10 µM) amounted to 1.45%.

In the case of `O=C(Nc1ccc(S(F)(F)(F)(F)F)cc1)c1ccc(S(=O)(=O)c2ccc(O)cc2)cc1` [Compound 13e, 4-((4-Hydroxyphenyl)sulfonyl)-N-(4-(pentafluorothio)phenyl)benzamide], the IC50 in data set [2] stood at 5.37 µM; in the data set on VCaP, 5.35 µM; in the data set on 22Rv1, 5.78 µM; in the data set with LNCaP, 2.49 µM; in the data set on DU-145 it was 10.8 µM. The viability at 24 h, 10 µM in data set [3] turned out to be 38.4%. Moreover, in data set [1] (human, 24 h, 10 μM), the “reduction of cell viability / cells killed” value is reported as “more than 50%”.

Usually IC50 stands for the concentration at which inhibition is half-maximal. By viability is commonly meant a per cent measure of how many cells are alive, often set against a control. Read a high viability as less harm to the cells.
